ChEMBL document CHEMBL1201862, “PubChem BioAssay data set” (2004)
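Cultured in 96-well plates, cells were exposed to test compound for 48 hours across five concentrations. GI50 = concentration required for 50% inhibition of growth.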 The source made the active and inactive calls. No stated cut-off is given here; in the data, active = GI50 up to about 1.1 µM and inactive = higher.

What was measured:
Assay in all cases: NCI anticancer screen, dose series, 48 h
[1] = system: OVCAR-4
[2] = system: SK-MEL-28
[3] = system: COLO 205
[4] = system: SF-268
[5] = system: BT-549
[6] = system: MDA-N
[7] = system: 786-0
[8] = system: NCI/ADR-RES
[9] = system: SNB-75
[10] = system: PC-3
[11] = system: SK-OV-3
[12] = system: DU-145
[13] = system: TK-10
[14] = system: M14
[15] = system: K562
[16] = system: NCI-H23
[17] = system: Hs-578T
[18] = system: NCI-H226
[19] = system: OVCAR-5

Measured: GI50

O=[N+]([O-])c1ccc(Cl)cc1N/N=C/c1cccc2cccnc12
inactive: [1] 92.7 µM | [2] > 100 µM | [3] > 100 µM | [4] > 100 µM | [5] > 100 µM | [6] > 100 µM | [7] > 100 µM | [8] > 100 µM | [9] 59.2 µM | [10] > 100 µM | [11] > 100 µM | [12] > 100 µM | [13] > 100 µM | [14] > 100 µM | [15] 89.9 µM | [16] > 100 µM | [17] 30.8 µM

N=C(N)SCc1nc(-c2ccc(Cl)cc2)no1
inactive: [1] 14.6 µM | [2] 16.9 µM | [3] 14.6 µM | [4] 19.3 µM | [5] 23.2 µM | [7] 14.3 µM | [8] 27.9 µM | [9] 23.1 µM | [10] 14 µM | [11] 26.9 µM | [12] 15.7 µM | [18] > 100 µM | [19] 10.3 µM | [13] 20.6 µM | [14] 16.8 µM | [15] 5.71 µM | [16] 34.4 µM | [17] 42 µM

CCOC(=O)Cc1c(C)c2ccc(OC(C)=O)c(OC(C)=O)c2oc1=O
inactive: [1] 16.5 µM | [2] 21.3 µM | [3] 40 µM | [4] 19.6 µM | [6] > 100 µM | [7] 27.7 µM | [8] 22 µM | [9] 19.4 µM | [10] 23.3 µM | [11] > 100 µM | [12] 24.9 µM | [18] 32.7 µM | [19] 53.6 µM | [13] 20.9 µM | [14] 17.9 µM | [15] 28.8 µM | [16] 22.4 µM | [17] 32.4 µM

N#CC1C(=O)NC2=C(CCOc3c2ccc2ccccc32)C1c1ccc(F)cc1 (stereo not given)
inactive: [1] 31.8 µM | [3] 61 µM | [4] 22.4 µM | [5] 60 µM | [7] 17.7 µM | [8] 14.9 µM | [9] 20.2 µM | [10] 19.3 µM | [11] 24.8 µM | [12] 29.1 µM | [19] 23.5 µM | [13] 23.4 µM | [14] 26.1 µM | [15] > 100 µM | [16] 23.4 µM | [17] 16.2 µM

CCC1OC(=O)CC(O)C(C)C(OC2OC(C)C(O)C(N(C)C)C2O)C(CC=O)CC(C)C(=O)/C=C/C2(C)OC2C1C (stereo not given)
inactive: [1] 55.1 µM | [2] 54.6 µM | [3] 19.6 µM | [4] 24.9 µM | [5] 37.3 µM | [6] 24.4 µM | [7] 24.1 µM | [9] 23.5 µM | [10] 47.9 µM | [11] 58.7 µM | [12] 20.7 µM | [18] > 100 µM | [19] 47.3 µM | [13] 34.2 µM | [14] 18.6 µM | [15] 12 µM | [16] 26.4 µM | [17] 27.1 µM

C[C@H]1[C@H]2[C@H]3CC[C@@H]4[C@@]5(C)CC[C@H](O)C(C)(C)[C@@H]5CC[C@@]4(C)[C@]3(C)C[C@H](O)[C@@]2(C)C[C@H]2O[C@]21C
inactive: [1] 25.1 µM | [2] 15.5 µM | [3] 24 µM | [4] 18 µM | [5] 20.4 µM | [6] 18.9 µM | [7] 19.5 µM | [8] 18.5 µM | [10] 13.7 µM | [11] 14.7 µM | [12] 15.5 µM | [19] 24.6 µM | [13] 22.3 µM | [14] 25.5 µM | [16] 18.2 µM | [17] 25.2 µM

COC1=CC(=O)O/C1=C(\OC)C1OC1c1ccccc1 (stereo not given)
inactive: [1] > 100 µM | [2] > 100 µM | [3] > 100 µM | [4] > 100 µM | [5] > 100 µM | [7] > 100 µM | [8] > 100 µM | [10] > 100 µM | [11] > 100 µM | [12] > 100 µM | [18] > 100 µM | [19] > 100 µM | [13] > 100 µM | [14] > 100 µM | [16] > 100 µM | [17] > 100 µM

CN(C)CCCOC(=O)C(c1ccccc1)C1(O)CCSCC1 (stereo not given)
inactive: [1] > 100 µM | [2] > 100 µM | [3] > 100 µM | [4] > 100 µM | [6] > 100 µM | [7] > 100 µM | [8] 10.2 µM | [9] 87.1 µM | [10] > 100 µM | [11] > 100 µM | [12] > 100 µM | [18] 79.1 µM | [19] > 100 µM | [13] > 100 µM | [14] > 100 µM | [15] > 100 µM | [16] > 100 µM | [17] > 100 µM

O=C1/C(=C/c2ccc(Cl)cc2)N=C(c2ccccc2)N1c1nc2ccc(Sc3ccccc3)cc2[nH]1
inactive: [1] 34.7 µM | [2] 23.4 µM | [3] 19.7 µM | [4] 36.3 µM | [5] 21.7 µM | [6] 10.6 µM | [7] 25.9 µM | [8] 23.6 µM | [9] 15.8 µM | [10] 30.6 µM | [11] 41.4 µM | [12] 35.3 µM | [19] 25.6 µM | [13] 23.8 µM | [14] 16.3 µM | [15] 17.5 µM | [16] 30.1 µM | [17] 29.2 µM

COc1nc(C(=O)NNC(=O)c2nc(OC)c3ccccc3c2-c2ccccc2)c(-c2ccccc2)c2ccccc12
inactive: [1] > 100 µM | [2] > 100 µM | [3] > 100 µM | [4] > 100 µM | [5] > 100 µM | [7] > 100 µM | [8] > 100 µM | [9] 96.6 µM | [10] > 100 µM | [11] > 100 µM | [12] > 100 µM | [18] > 100 µM | [19] > 100 µM | [13] > 100 µM | [14] > 100 µM | [15] > 100 µM | [16] > 100 µM | [17] > 100 µM

N#C[C@H]1Nc2ccccc2[C@@H](O)C1O (stereo not given in full)
inactive: [1] > 100 µM | [2] > 100 µM | [3] > 100 µM | [4] > 100 µM | [6] > 100 µM | [7] > 100 µM | [8] > 100 µM | [9] > 100 µM | [10] > 100 µM | [11] > 100 µM | [12] > 100 µM | [19] > 100 µM | [13] > 100 µM | [14] > 100 µM | [15] > 100 µM | [16] > 100 µM | [17] > 100 µM
